Data reported in the supplement of paper PMC10307832.

Key:
Experiment in all cases: relative viability (nuclei count vs DMSO), 5 days (fraction); higher = more cells survive
[1] = compound: C1CC1C(=O)NC2=NNC3=C2C=CC(=C3)C4=CC(=CC=C4)C(=O)NC5CC5 [XMD13-2] + Cc1nc(NC(=O)N2CCC[C@H]2C(N)=O)sc1-c1ccnc(C(C)(C)C(F)(F)F)c1 [Alpelisib] (partner 2 µM)
Procedure, shortened: (§1)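 The day after seeding in 1536-well plates, lung cancer cell lines were treated by pin tool with a single drug, or with a fixed anchor-drug dose together with five library-drug doses (not always all listed) in √10 steps. After 5 days, a combined fix-and-stain solution (final 0.05% Triton X-100, 1% formaldehyde, 1 ug/ml Hoechst) was added. Nuclei counted on 4× images gave relative viability as treated counts over vehicle counts, reported as the median of duplicate plates.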

[2] = compound: C1CC1C(=O)NC2=NNC3=C2C=CC(=C3)C4=CC(=CC=C4)C(=O)NC5CC5 [XMD13-2] + O=C(c1cc(Cc2n[nH]c(=O)c3ccccc23)ccc1F)N1CCN(C(=O)C2CC2)CC1 [Olaparib] (partner 8 µM)
Procedure, shortened: as §1

[3] = compound: Cc1ccc(C(=O)Nc2cccc(C(F)(F)F)c2)cc1Nc1cncc(C(N)=O)c1 [ALW-II-49-7] + CC(C)C[C@H](NC(=O)[C@H](Cc1ccccc1)NC(=O)c1cnccn1)B(O)O [Bortezomib] (partner 0.002 µM)
Procedure, shortened: as §1

[4] = compound: Cc1nc(Nc2ncc(C(=O)Nc3c(C)cccc3Cl)s2)cc(N2CCN(CCO)CC2)n1 [Dasatinib] + Nc1nc2[nH]cc(CCc3ccc(C(=O)N[C@@H](CCC(=O)O)C(=O)O)cc3)c2c(=O)[nH]1 [Pemetrexed] (partner 0.2 µM)
Procedure, shortened: as §1

Cell Line	relative viability ([1]; first compound 0.05 µM)	relative viability ([1]; first compound 0.1581 µM)	relative viability ([1]; first compound 0.5 µM)	relative viability ([1]; first compound 1.581 µM)	relative viability ([1]; first compound 5 µM)	relative viability ([2]; first compound 0.05 µM)	relative viability ([2]; first compound 0.1581 µM)	relative viability ([2]; first compound 0.5 µM)	relative viability ([2]; first compound 1.581 µM)	relative viability ([2]; first compound 5 µM)	relative viability ([3]; first compound 0.08 µM)	relative viability ([3]; first compound 0.253 µM)	relative viability ([3]; first compound 0.8 µM)	relative viability ([3]; first compound 2.53 µM)	relative viability ([3]; first compound 8 µM)	relative viability ([4]; first compound 0.005 µM)	relative viability ([4]; first compound 0.01581 µM)	relative viability ([4]; first compound 0.05 µM)	relative viability ([4]; first compound 0.1581 µM)	relative viability ([4]; first compound 0.5 µM)
LC-2-ad	0.983	0.887	0.939	0.938	0.79	0.684	0.716	0.681	0.701	0.718	1.06	0.997	1.01	1.05	0.983	0.262	0.253	0.256	0.237	0.214
LCLC-97TM1	0.214	0.262	0.225	0.206	0.146	0.498	0.507	0.336	0.263	0.173	0.354	0.677	0.651		0.218	0.195	0.184	0.177	0.182	0.143
LCLC-103H	0.91	0.979	0.981	0.959	0.851	0.764	0.797	0.776	0.846	0.805	1.03	0.859	1.1	0.9	0.962	0.517	0.437	0.481	0.461	0.328
LOU-NH91	0.783	0.759	0.72	0.659	0.796	0.976	0.958	0.97	0.869	0.944	0.425	0.529	0.549	0.316	0.489	0.414	0.389	0.407	0.377	0.319
LU99A	0.553	0.491	0.561	0.446	0.335	0.288	0.277	0.248	0.273	0.263	1.29	1.17	1.05	1.07	1.27	0.191	0.158	0.192	0.176	0.16
LXF-289	1.09	0.982	1.08	1.05	1.04	1.28	1.03	1.15	0.99	1.05	0.973	0.965	1.02	1.1	1.04	0.918	0.987	1.13	0.687	0.205
NCI-H23	0.731	0.676	0.752	0.669	0.806	0.336	0.342	0.365	0.3	0.281	1.12	0.807	1.03	1.12	1.02	0.549	0.528	0.59	0.402	0.384
NCI-H322M	0.833	0.716	0.71	0.793	0.872	0.807	0.848	0.553		1.04	1.09	1.36	1.43	1.32	1.26	0.576	0.495	0.394	0.273	0.231
NCI-H441	0.675	1.15	0.649	0.801	0.547	0.545	0.578	0.534	0.477	0.495	0.333	0.559	0.431	0.384	0.208	0.305	0.259	0.286	0.225	0.27
NCI-H460	0.653	0.586	0.498	0.468	0.492	0.546	0.493	0.412	0.526	0.566	0.869	1.04	1.04	0.956	1.05	0.0609	0.062	0.0522	0.0587	0.0433
NCI-H520	0.921	0.954	0.967	0.861	0.49	0.333	0.325	0.498	0.36	0.307	0.385	0.528		0.441	0.709	0.51	0.358	0.285	0.138	0.138
NCI-H596	0.624	0.543	0.407	0.587	0.0287	0.703	0.729	0.738	0.704	0.769	0.672	0.99	1.18	1	0.953	0.486	0.47	0.439	0.415	0.359
NCI-H647	1.31	1.22	1.14	1.05	1.22	0.622	0.435	0.545	0.602	0.234	0.858	1.13	0.799	0.725	0.801	0.156	0.137	0.117	0.0903	0.0883
NCI-H650	1.21	1.2	1.43	1.18	1.15	0.379	0.379	0.424	0.462	0.356	0.649	0.906	0.913	0.88	0.663	0.989	0.932	0.818	0.66	0.418
NCI-H661	0.751	0.854	0.506	0.4	0.448	0.728	0.671	0.739	0.767	0.66	0.865	0.796	0.717		0.716	0.913	0.823	0.889	0.763	0.51
NCI-H838	1.14	1.04	1.01	1	1.06	0.865	0.749	0.817	0.774	0.699	0.71	0.839	0.721	0.64	1.05	0.26	0.241	0.218	0.176	0.214

Cell Line	relative viability ([1]; first compound 0.05 µM)	relative viability ([1]; first compound 0.1581 µM)	relative viability ([1]; first compound 0.5 µM)	relative viability ([1]; first compound 1.581 µM)	relative viability ([1]; first compound 5 µM)	relative viability ([2]; first compound 0.05 µM)	relative viability ([2]; first compound 0.1581 µM)	relative viability ([2]; first compound 0.5 µM)	relative viability ([2]; first compound 1.581 µM)	relative viability ([2]; first compound 5 µM)	relative viability ([3]; first compound 0.08 µM)	relative viability ([3]; first compound 0.253 µM)	relative viability ([3]; first compound 0.8 µM)	relative viability ([3]; first compound 2.53 µM)	relative viability ([3]; first compound 8 µM)	relative viability ([4]; first compound 0.005 µM)	relative viability ([4]; first compound 0.01581 µM)	relative viability ([4]; first compound 0.05 µM)	relative viability ([4]; first compound 0.1581 µM)	relative viability ([4]; first compound 0.5 µM)
NCI-H1355	0.924	0.888	0.843	0.777	0.776	0.755	0.716	0.807	0.762	0.773	0.983	1.26	1.23	1.2	1.08	1.04	0.92	1.1	0.806	0.663
NCI-H1437	0.935	1.06	0.955	0.796	1.05	0.61	0.617	0.64	0.64	0.634	0.597	0.478		0.436	0.5	0.351	0.336	0.287	0.256	0.203
NCI-H1651	1.19	0.899	0.942	0.913	1.02	0.174	0.206	0.19	0.184	0.188	1.06	0.976	1.04	0.933	0.936	0.58	0.506	0.485	0.545	0.426
NCI-H1666	1.02	1.07	0.936	0.874	0.879	0.752	0.736	0.793	0.742	0.777	0.663	0.79	0.87	1.04	0.928	0.871	0.848	0.88	0.73	0.633
NCI-H1734	0.887	0.577	0.662	0.576	0.565	0.769	0.628	0.616	0.594	0.523	1.07	1.14	0.846	0.823	0.738	0.377	0.416	0.387	0.376	0.341
NCI-H1755	0.928	0.915	0.928	0.92	0.965	0.878	0.892	0.94	0.91	0.84	0.963	1.04	0.963	0.923	0.849	0.465	0.357	0.413	0.346	0.235
NCI-H1792	0.845	0.691	0.745	0.845	0.821	0.628	0.385	0.428	0.383	0.573	0.745	0.878	0.82	0.922	0.95	0.709	0.672	0.605	0.267	0.067
NCI-H1915	1.1	1.08	1.04	1.05	1.06	0.273	0.253	0.287	0.254	0.269	0.648	1	0.918	0.931	0.67	0.489	0.455	0.449	0.337	0.159
NCI-H1975	0.768	0.642	0.656	0.607	0.648	0.89	0.798	0.828	0.871	0.792	0.274	0.485	0.333	0.338	0.319	0.284	0.286	0.297	0.239	0.201
NCI-H1993	0.666	0.663	0.694	0.763	0.642	1.1	0.924	0.507	0.813	0.952	1.14	1.19	1.01	1.13	1.33	0.591	0.498	0.616	0.395	0.385
NCI-H2009	1.23	1.14	1.22	1.15	1.23	0.663	0.685	0.727	0.673	0.745	1	1.03	0.96	0.783	0.512	1.17	1.09	1.31	0.946	0.243
NCI-H2023	0.661	0.618	0.52	0.53	0.617	0.567	0.472	0.504	0.492	0.507	1.05	0.889	1	0.942	0.666	0.204	0.238	0.195	0.175	0.191
NCI-H2085	0.965	0.946	1.04	0.928	0.98	0.771	0.695	0.805	0.728	0.768	0.989	1	1.13	1.16	0.969	0.743	0.756	0.491	0.23	0.205
NCI-H2087	1.14	1.08	1.13	1.05	1.03	0.643	0.607	0.691	0.562	0.567	0.759	0.959	0.824	0.846	0.857	0.719	0.617	0.67	0.649	0.471
NCI-H2126	0.825	0.754	0.754	0.767	0.795	0.922	0.863	0.894	0.821	0.929	1.09	1.17	1.2	1.08	1.17	0.736	0.608	0.636	0.499	0.344
NCI-H2228	0.768	0.716	0.771	0.772	0.655	0.834	0.517	0.623	0.554	0.747	1.06	0.636	0.975	0.915	1.16	0.323	0.325	0.319	0.259	0.128
